Data from patent publication US12523663B2, “Use of CD9 as a biomarker and as a biotarget in glomerulonephritis or glomerulosclerosis” (INSERM (INSTITUT NATIONAL DE LA SANTÉ ET DE LA RECHERCHE …, priority 2019, dated 2026).

Columns and labels:
Type in all cases: cell-based
PEC [1] = assay: Proliferation assay (Ki67 staining, flow cytometry); settings: PDGF-BB stimulation
Method: To assess cell proliferation, we used the nuclear antigen Ki67 staining. After overnight starvation in ECBM+1% FBS, cells were treated 24 hours with PDGF-BB (10 ng/mL) or HBEGF (20 ng/mL) or corresponding controls. Cells were then trypsinized and washed in cold PBS. Supernatants were kept and included in analysis. After centrifugation, cells were permeabilized with 1 mL of ice-cold ethanol for 2 h at −20° C. Following two washes with FACS buffer (HBSS, 2% FBS and 10 mM HEPES), cells were stained for 30 min at room temperature in the dark with phycoerythrin (PE)-conjugated anti-human Ki67 mAb (clone B56) (BD Pharmingen) and washed. Samples were analyzed on a BD LSRII flow cytometer (BD Bioscience). An isotype control staining with PE mouse IgG1 was performed. Data were analyzed using FlowJo software (FlowJo, LLC).

PEC [2] = assay: Cell migration in IBIDI chambers (scratch assay); settings: scratch assays, growth factor stimulation
Method: Unoriented migration assay was performed using IBIDI chambers (Culture-Insert 2 Well in μ-Dish 35 mm, high ibiTreat, n° 81176). After confluence was obtained, PECs were grown in ECBM without supplements with FBS 1% overnight. The insert was then removed creating a gap of 500 μm between cells. A first round of photographs was taken (HO), shortly after cells were stimulated with either ECBM without supplements with FBS 1% (control), or with HB-EGF 10 ng/mL, or with PDGF-BB 10 ng/mL. Photographs were taken every 30 min for 12 h. Areas of migration were measured by automatic quantification on NIS-Elements AR software.

PDGFRβ = assay: Western blot of PDGFRβ phosphorylation in PEC; settings: PEC stimulated with PDGF-BB
Method: PEC lysates were prepared with RIPA extraction buffer containing phosphatase inhibitors and protease inhibitors (Roche). Equal amounts of proteins were loaded onto sodium dodecyl sulfate-polyacrylamide electrophoresis gels for separation and transferred onto poly(vinylidene difluoride) membranes. The membranes were blocked with milk and probed with different antibodies: rat anti-CD9 (BD Pharminogen, 553758, 1:1000), rabbit anti-phospho-PDGF receptor-β Y1009 (Cell Signaling Technology, 4549; 1:1000), rabbit anti-PDGFRB (Cell Signaling, 3169; 1:1000), rabbit anti-integrin […] (Millipore, 04-1109, 1:1000), rabbit anti-CASP3 (Cell Signaling Technology, 9662; 1:1000), rabbit anti-phospho EGFR Y1068 (Cell Signaling Technology, 2234; 1:1000), rabbit anti EGFR (Cell Signaling Technology, 2232; 1:1000), rabbit anti-phospho-FAK Y397 (Cell Signaling 3283, 1:1000), rabbit anti-FAK (Millipore, 06-543,1:1000). Membranes were then probed with horseradish peroxidase-conjugated secondary antibodies (Cell Signaling Technology, 7074 and 7076; 1:2000; Jackson Immunoresearch, 706-036-148; 1:1000) and bands were visualized by enhanced chemiluminescence (Clarity Western ECL substrate; Bio-Rad, 170-5061). A LAS-4000 imaging system (Fuji, LAS4000, Burlington, N.J., USA) was used to reveal bands and densitometric analysis was used for quantification.

In the case of “PDGF-BB: growth factor used to stimulate PECs”, the “PEC proliferation (number of KI67+ cells)” value (PEC [1]) is reported as “induced PEC proliferation”, the PEC migration (PEC [2]) is reported as “induced PEC migration” and the PDGFRβ phosphorylation (PDGFRβ) is reported as “induced a rapid and transient PDGFRβ phosphorylation”.

B1: HB-EGF: growth factor used to stimulate PECs (protein, UniProt Q99075 63-148, looked up)
Heparin-binding EGF-like …: DLQEADLDLLRVTLSSKPQALATPNKEEHGKRKKKGKGLGKKRDPCLRKYKDFCIHGECKYVKELRAPSCICHPGYHGERCHGLSL
For B1, the PEC migration (PEC [2]) was “induced PEC migration”.
